The supplement of paper PMC10627819

Key:
Assay in all cases: fitness (endpoint OD595 vs no drug) (fraction); higher = more growth
S. aureus DSM 20231 = test system: S. aureus DSM 20231
Outline: (§1)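 Each well of a 384-well plate received 30 µl of culture at OD595 0.01, or 55 µl for S. pneumoniae. TSB, LB Lennox or CY served as media at 37 °C. OD595 was taken every 30 min for 14 h and corrected by subtracting the first reading. Fitness is the optical density at stationary-phase entry divided by the robust mean of no-drug controls, capped at 1.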

S. aureus Newman = test system: S. aureus Newman
Outline: as §1

S. pneumoniae D39V = test system: S. pneumoniae D39V
Outline: as §1

CO[C@@]12[C@H](COC(N)=O)C3=C(C(=O)C(C)=C(N)C3=O)N1C[C@@H]1N[C@@H]12 [Mitomycin C] + CN[C@H](CC(C)C)C(=O)N[C@H]1C(=O)N[C@@H](CC(N)=O)C(=O)N[C@H]2C(=O)N[C@H]3C(=O)N[C@H](C(=O)N[C@H](C(=O)O)c4cc(O)cc(O)c4-c4cc3ccc4O)[C@H](O)c3ccc(c(Cl)c3)Oc3cc2cc(c3O[C@@H]2O[C@H](CO)[C@@H](O)[C@H](O)[C@H]2O[C@H]2C[C@](C)(N)[C@H](O)[C@H](C)O2)Oc2ccc(cc2Cl)[C@H]1O [Vancomycin]
Settings	fitness
S. aureus DSM 20231, first compound 0.0156 µg/mL, partner 0.1875 µg/mL	0.741
S. aureus DSM 20231, first compound 0.0156 µg/mL, partner 0.375 µg/mL	0.719
S. aureus DSM 20231, first compound 0.0156 µg/mL, partner 0.75 µg/mL	0.708
S. aureus DSM 20231, first compound 0.0312 µg/mL, partner 0.1875 µg/mL	0.705
S. aureus DSM 20231, first compound 0.0312 µg/mL, partner 0.375 µg/mL	0.762
S. aureus DSM 20231, first compound 0.0312 µg/mL, partner 0.75 µg/mL	0.751
S. aureus DSM 20231, first compound 0.0625 µg/mL, partner 0.1875 µg/mL	0.592
S. aureus DSM 20231, first compound 0.0625 µg/mL, partner 0.375 µg/mL	0.624
S. aureus DSM 20231, first compound 0.0625 µg/mL, partner 0.75 µg/mL	0.624
S. aureus Newman, first compound 0.0156 µg/mL, partner 0.1875 µg/mL	0.747
S. aureus Newman, first compound 0.0156 µg/mL, partner 0.375 µg/mL	0.708
S. aureus Newman, first compound 0.0156 µg/mL, partner 0.75 µg/mL	0.733
S. aureus Newman, first compound 0.0312 µg/mL, partner 0.1875 µg/mL	0.719
S. aureus Newman, first compound 0.0312 µg/mL, partner 0.375 µg/mL	0.684
S. aureus Newman, first compound 0.0312 µg/mL, partner 0.75 µg/mL	0.65
S. aureus Newman, first compound 0.0625 µg/mL, partner 0.1875 µg/mL	0.56
S. aureus Newman, first compound 0.0625 µg/mL, partner 0.375 µg/mL	0.415
S. aureus Newman, first compound 0.0625 µg/mL, partner 0.75 µg/mL	0.411
S. pneumoniae D39V, first compound 0.001075 µg/mL, partner 0.125 µg/mL	0.928
S. pneumoniae D39V, first compound 0.001075 µg/mL, partner 0.25 µg/mL	0.629
S. pneumoniae D39V, first compound 0.001075 µg/mL, partner 0.5 µg/mL	0.208
S. pneumoniae D39V, first compound 0.002 µg/mL, partner 0.03125 µg/mL	0.951
S. pneumoniae D39V, first compound 0.002 µg/mL, partner 0.0625 µg/mL	0.877
S. pneumoniae D39V, first compound 0.002 µg/mL, partner 0.125 µg/mL	0.745
S. pneumoniae D39V, first compound 0.00215 µg/mL, partner 0.125 µg/mL	0.869
S. pneumoniae D39V, first compound 0.00215 µg/mL, partner 0.25 µg/mL	0.68
S. pneumoniae D39V, first compound 0.00215 µg/mL, partner 0.5 µg/mL	0.202
S. pneumoniae D39V, first compound 0.004 µg/mL, partner 0.03125 µg/mL	0.846
S. pneumoniae D39V, first compound 0.004 µg/mL, partner 0.0625 µg/mL	0.836
S. pneumoniae D39V, first compound 0.004 µg/mL, partner 0.125 µg/mL	0.667
S. pneumoniae D39V, first compound 0.0043 µg/mL, partner 0.125 µg/mL	0.863
S. pneumoniae D39V, first compound 0.0043 µg/mL, partner 0.25 µg/mL	0.592
S. pneumoniae D39V, first compound 0.0043 µg/mL, partner 0.5 µg/mL	0.206
S. pneumoniae D39V, first compound 0.008 µg/mL, partner 0.03125 µg/mL	0.727
S. pneumoniae D39V, first compound 0.008 µg/mL, partner 0.0625 µg/mL	0.732
S. pneumoniae D39V, first compound 0.008 µg/mL, partner 0.125 µg/mL	0.629

CO[C@@]12[C@H](COC(N)=O)C3=C(C(=O)C(C)=C(N)C3=O)N1C[C@@H]1N[C@@H]12 [Mitomycin C] + COc1c(N2C[C@@H]3CCCN[C@@H]3C2)c(F)cc2c(=O)c(C(=O)O)cn(C3CC3)c12 [Moxifloxacin]
Settings	fitness
S. aureus DSM 20231, first compound 0.0156 µg/mL, partner 0.0075 µg/mL	0.677
S. aureus DSM 20231, first compound 0.0156 µg/mL, partner 0.015 µg/mL	0.675
S. aureus DSM 20231, first compound 0.0156 µg/mL, partner 0.03 µg/mL	0.543
S. aureus DSM 20231, first compound 0.0312 µg/mL, partner 0.0075 µg/mL	0.703
S. aureus DSM 20231, first compound 0.0312 µg/mL, partner 0.015 µg/mL	0.624
S. aureus DSM 20231, first compound 0.0312 µg/mL, partner 0.03 µg/mL	0.506
S. aureus DSM 20231, first compound 0.0625 µg/mL, partner 0.0075 µg/mL	0.557
S. aureus DSM 20231, first compound 0.0625 µg/mL, partner 0.015 µg/mL	0.504
S. aureus DSM 20231, first compound 0.0625 µg/mL, partner 0.03 µg/mL	0.371
S. aureus Newman, first compound 0.0156 µg/mL, partner 0.0075 µg/mL	0.63
S. aureus Newman, first compound 0.0312 µg/mL, partner 0.0075 µg/mL	0.59
S. aureus Newman, first compound 0.0312 µg/mL, partner 0.03 µg/mL	0.0632
S. aureus Newman, first compound 0.0625 µg/mL, partner 0.0075 µg/mL	0.32
S. aureus Newman, first compound 0.0625 µg/mL, partner 0.03 µg/mL	0.0334
S. pneumoniae D39V, first compound 0.001075 µg/mL, partner 0.0037 µg/mL	0.878
S. pneumoniae D39V, first compound 0.001075 µg/mL, partner 0.0075 µg/mL	0.902
S. pneumoniae D39V, first compound 0.001075 µg/mL, partner 0.015 µg/mL	0.869
S. pneumoniae D39V, first compound 0.002 µg/mL, partner 0.005 µg/mL	0.895
S. pneumoniae D39V, first compound 0.002 µg/mL, partner 0.01 µg/mL	0.902
S. pneumoniae D39V, first compound 0.002 µg/mL, partner 0.02 µg/mL	0.769
S. pneumoniae D39V, first compound 0.00215 µg/mL, partner 0.0037 µg/mL	0.846
S. pneumoniae D39V, first compound 0.00215 µg/mL, partner 0.0075 µg/mL	0.805
S. pneumoniae D39V, first compound 0.00215 µg/mL, partner 0.015 µg/mL	0.813
S. pneumoniae D39V, first compound 0.004 µg/mL, partner 0.005 µg/mL	0.838
S. pneumoniae D39V, first compound 0.004 µg/mL, partner 0.01 µg/mL	0.807
S. pneumoniae D39V, first compound 0.004 µg/mL, partner 0.02 µg/mL	0.727
S. pneumoniae D39V, first compound 0.0043 µg/mL, partner 0.0037 µg/mL	0.665
S. pneumoniae D39V, first compound 0.0043 µg/mL, partner 0.0075 µg/mL	0.691
S. pneumoniae D39V, first compound 0.0043 µg/mL, partner 0.015 µg/mL	0.666
S. pneumoniae D39V, first compound 0.008 µg/mL, partner 0.005 µg/mL	0.673
S. pneumoniae D39V, first compound 0.008 µg/mL, partner 0.01 µg/mL	0.72
S. pneumoniae D39V, first compound 0.008 µg/mL, partner 0.02 µg/mL	0.637

fitness, S. aureus DSM 20231, one replicate
Settings	first compound 0.0156 µg/mL	first compound 0.0312 µg/mL	first compound 0.0625 µg/mL
partner 0.06 µg/mL	0.674	0.603	0.512
partner 0.12 µg/mL	0.413	0.302	0.198

CO[C@@]12[C@H](COC(N)=O)C3=C(C(=O)C(C)=C(N)C3=O)N1C[C@@H]1N[C@@H]12 [Mitomycin C] + COc1ccc(C[C@H](N)C(=O)N[C@H]2[C@@H](O)[C@H](n3cnc4c(N(C)C)ncnc43)O[C@@H]2CO)cc1 [Puromycin]
fitness
Settings	first compound 0.001075 µg/mL	first compound 0.00215 µg/mL	first compound 0.0043 µg/mL	first compound 0.0156 µg/mL	first compound 0.0312 µg/mL	first compound 0.0625 µg/mL
S. aureus DSM 20231, partner 0.39 µg/mL	–	–	–	0.759	0.758	0.593
S. aureus DSM 20231, partner 0.78 µg/mL	–	–	–	0.776	0.78	0.638
S. aureus DSM 20231, partner 1.56 µg/mL	–	–	–	0.752	0.699	0.582
S. aureus Newman, partner 0.39 µg/mL	–	–	–	0.79	0.651	0.552
S. aureus Newman, partner 0.78 µg/mL	–	–	–	0.766	0.704	0.604
S. aureus Newman, partner 1.56 µg/mL	–	–	–	0.764	0.662	0.494
S. pneumoniae D39V, partner 1 µg/mL	0.986	0.968	0.867	–	–	–
S. pneumoniae D39V, partner 2 µg/mL	0.935	0.915	0.781	–	–	–
S. pneumoniae D39V, partner 4 µg/mL	0.798	0.775	0.654	–	–	–

fitness, one replicate
Settings	first compound 0.002 µg/mL	first compound 0.004 µg/mL	first compound 0.008 µg/mL	first compound 0.0156 µg/mL	first compound 0.0312 µg/mL	first compound 0.0625 µg/mL
S. aureus DSM 20231, partner 3.12 µg/mL	–	–	–	0.807	0.594	0.363
S. aureus DSM 20231, partner 6.24 µg/mL	–	–	–	0.27	0.219	0.114
S. pneumoniae D39V, partner 1 µg/mL	0.798	0.786	0.685	–	–	–
S. pneumoniae D39V, partner 2 µg/mL	0.783	0.762	0.692	–	–	–
S. pneumoniae D39V, partner 4 µg/mL	0.628	0.612	0.541	–	–	–
